Experimental data as given in patent US7727511B2, “Agents for imaging soluble a-beta” (priority 2003, dated 2010).
Entries after “also recorded” stand apart in the source; their conditions may differ.

Experiments:
[1] = target: T1, beta-amyloid 1-40 (20% biotin) fibrils (Homo sapiens, UniProt P05067); test: Scintillation proximity assay (SPA), direct/saturation binding of tritium labeled probe to fibrils; conditions: immobilized fibrils, identical conditions
T1 construct: purchased Bachem H-1194; biotinylated H-5914; host or cells: synthetic peptide
Protocol: B. Insoluble A-beta (1-40) fibril formation: Lyophilized human beta-amyloid 1-40 peptide (Catalog number H-1194, Bachem) was solubilized with HFIP to produce a dry clear film following the process described above for beta-amyloid 1-42. The clear film of beta-amyloid 1-40 was diluted with distilled water to achieve a 6 mg/mL concentration. […] The clear solution was diluted to 1 mg/mL with PBS, pH 7.4 to obtain a final concentration of 1 mg/mL beta-amyloid 1-40, and then incubated at 37° C. on an orbital shaker at 200 RPM for 4 days. A cloudy solution was produced, and the fibril production was confirmed by measuring changes in fluorescence of Thioflavin T, as well as by atomic force microscopy and transmission electron microscopy. Fibrils were used immediately after their production was confirmed.
For SPA and atomic force microscopy (AFM) experiments, preparations of soluble oligomers and fibrils contained 20% biotinylated beta-amyloid 1-42 and 1-40, respectively (H-5642, H-5914, Bachem). […]
For the saturation-binding assay, isotopic dilution of radiolabeled 49b with unlabeled 49b was performed. ^3H-49b was added to 500 uM of unlabeled 49b to a final concentration of 50 μCi/mL ^3H-49b. […] Assays were incubated overnight and counted the following morning. […]

[2] = target: beta-amyloid 1-40 monomers (Homo sapiens, UniProt P05067); test: Ex vivo fluorescent binding assay, monomers on naive rat brain sections; conditions: data not shown
Protocol: (§1) Fresh-frozen tissue sections of Sprauge-Dawley naïve rat brain (Taconic) 10 microns in thickness were fixed with 10% formalin in PBS. Each section of the rat brain was then embedded in paraffin, an optional step that increases the shelf life of the sample. Pre-formed soluble oligomers (100 μM), fibrils (100 μM), or monomers were applied onto tissues, and the slides incubated in a humidified chamber for two hours at 37° C. The slides were washed with PBS three times, then incubated with blocking buffer consisting of 10% normal goat serum in 3% BSA in PBS. To verify the presence of beta-amyloid, 100 μL of a 1/250th dilution of anti-beta-amyloid antibody, 6E10 (Signet Laboratories) was applied onto the tissues. The slides were incubated for 1.5 hours at room temperature or for 45 mins at 37° C. 1 mM stock solutions of 49b and Thioflavin T were prepared in 50% ethanol. The probes were diluted to 50 μM in blocking buffer. […] Microscopic examination and imaging was performed using a Leica wide-field fluorescence microscope using filter cube A (band pass 340-380 nm with a 400 nm dichroic mirror and a long pass 400 nm suppression filter) for 49b, cube E4 (band pass 436 nm with 455 dichroic mirror and a long pass 470 nm suppression filter) for Thioflavin T, and TX2 (band pass 520-600 nm with 595 nm dichroic mirror and 645/75 band pass suppression filter) for 6E10 immunostaining.

[3] = target: beta-amyloid 1-42 monomers (Homo sapiens, UniProt P05067); test: as above; conditions: data not shown
Protocol: as §1

[4] = tested on: beta-amyloid in PDAPP mouse brain sections; test: Histochemical staining on PDAPP transgenic mouse brain sections; type: binding
Protocol: 3-month old and 24-month old PDAPP mouse brains were obtained from Eli Lilly (Indianapolis, Ind.). Fresh frozen 30 micron sections of the brains were fixed in 10% formalin. For 49b, or Thioflavin S staining, 1 mM stock solutions of 49b and Thioflavin S were prepared in 50% ethanol. The probes were diluted to 25 μM in 50% ethanol, and then applied onto the PDAPP brain sections. The slides were incubated in a humid chamber at room temperature for 1 hr. The slides were washed three times with PBS and mounting medium (Molecular Probes) was added. The slides were incubated at least 4-6 hours before imaging. For the carbonate pre-treatment of the brain sections, formalin-fixed sections were incubated with 100 μL of carbonate buffer containing 0.025 M sodium chloride and 0.1 M sodium carbonate for 45 mins at 37° C. The slides were washed three times with PBS, then 49b or Thioflavin S were applied on the slides as described above. Microscopic examination and imaging was performed using a Leica wide-field fluorescence microscope using filter cube A for 49b and cube E4 for Thioflavin S. Co-staining of the probes with 6E10 anti-beta-amyloid antibody in the PDAPP brain sections was described in the ex vivo assay using naïve rats.

T1 sequence (P05067 672-711 limits assumed): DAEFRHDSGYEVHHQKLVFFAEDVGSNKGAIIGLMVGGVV
beta-amyloid 1-40 monomers, sequence (P05067 672-711 limits assumed): as above
beta-amyloid 1-42 monomers, sequence (P05067 672-713 limits assumed): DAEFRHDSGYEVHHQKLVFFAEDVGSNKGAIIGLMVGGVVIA

## O=Cc1ccc(-c2oc3ccccc3c2CO)o1 [Compound 49b, 2-(2-formyl-5-furanyl)-3-hydroxymethyl benzofuran]
[1]
  affinity to fibrils: no measurable affinity; also recorded: No demonstrable affinity
[2]
  staining of beta-amyloid 1-40 monomers: did not stain
[3]
  staining of beta-amyloid 1-42 monomers: did not stain
[4]; 24-month old PDAPP mice, 25 μM probe
  staining of brain sections: punctuate staining pattern that co-localized with beta-amyloid immunoreactivity; also recorded: primarily found in the hippocampus and co-localized with Thioflavin S staining
[4]; 24-month old PDAPP, carbonate extraction buffer to remove soluble material
  staining of carbonate pre-treated brain sections: did not stain
[4]; young (3-month old) PDAPP mice
  staining of brain sections: No staining was observed
